This is an account of results in ChEMBL document CHEMBL4387764, “Structure-activity relationship study of thiazolyl-hydroxamate derivatives as selective histone deacetylase 6 inhibitors” (Bioorg Med Chem, 2019).

A short description of data set [1]: in vitro. Particulars: human, liver microsomes.
Data set [2] is described as follows: in vitro. Particulars: CD-1, mouse, liver microsomes.
A short description of data set [3]: in vitro. To be noted: CD-1, mouse, liver microsomes. The source holds these as a separate data set.
Data set [4] can be described thus: in vitro. To be noted: human, liver microsomes. This is another data set of the same source.
The nature of data set [5]: in vitro. To be noted: human, liver microsomes. This is another data set of the same source.
Data set [6] can be described thus: in vitro. To be noted: CD-1, mouse, liver microsomes. This is another data set of the same source.
A short description of data set [7]: in vitro. Particulars: human, liver microsomes. This is another data set of the same source.
Data set [8] in a line: in vitro. To be noted: human, liver microsomes. This is another data set of the same source.
Data set [9] is described as follows: in vitro. To be noted: CD-1, mouse, liver microsomes. This is another data set of the same source.
Data set [10] can be described thus: in vitro. Particulars: CD-1, mouse, liver microsomes. This is another data set of the same source.
A short description of data set [11]: in vitro. Particulars: human, liver microsomes. The source holds these as a separate data set.
The nature of data set [12]: in vitro. Particulars: CD-1, mouse, liver microsomes. The source holds these as a separate data set.

Regarding `O=C(CCc1csc(/C=C/c2ccc(F)cc2)n1)NO`, the share remaining at 0 h, 1 µM in “in vitro [1]” turned out to be 106%; in “in vitro [3]”, 100%; in “in vitro [7]” it was 100%; in “in vitro [9]”, 107%. Also, the share remaining at 0.25 h, 1 µM in “in vitro [2]” worked out at 68.6%; in “in vitro [11]”, 103%. The share remaining at 0.5 h, 1 µM in “in vitro [4]” is 94.6%; in the data set “in vitro [6]”, 95.8%; in the data set “in vitro [8]” it was 112%; in the data set “in vitro [12]”, 25.2%. The share remaining at 5 min, 1 µM is 105% in the data set “in vitro [5]” and 99.8% in the data set “in vitro [10]”.
